In patent publication US20220348569A1 (priority 2021, published 2022):
Values joined by “and” are separate entries in the source; they are usually repeats but may differ in a detail not shown here. Equal values may be shown once. Read-outs that look alike come from different tables or passages of the source.

Tested on: SARS-CoV-2 pseudoviruses carrying spike mutations of B.1.1.7 UK, B.1.351 RSA and B.1.617.2 India (Delta) variants
Format: cell-based

SMILES	antiviral activity against mutant pseudoviruses (in words)	IC50 (read-out: IC50)	IC50 (read-out: IC50 in the range for all the pseudovirus variants)	IC50 (read-out: IC50 against B.1.617.2 Delta single, double and triple mutant variants)
O=C(O)c1cc(-c2ccc(/C=C3\SC(=S)N(CCc4ccccc4)C3=O)o2)ccc1Cl [Compound 1, (Z)-2-Chloro-5-(5-((4-oxo-3-phenethyl-2-thioxothiazolidin-5-ylidene)methyl)furan-2-yl)benzoic acid]	potent antiviral activity against all mutant pseudoviruses	57 nM and 33 nM	–	–
Cc1c(C(=O)O)cccc1-c1ccc(/C=C2\SC(=S)N(CCc3ccccc3)C2=O)o1 [Compound 5]	poor/no activity	> 2000 nM and 1730 nM and 1850 nM and 1720 nM	–	–
O=C(O)c1cccc(-c2ccc(/C=C3\SC(=S)N(CCc4ccccc4)C3=O)o2)c1 [Compound 2]	highly potent inhibitor against all mutant pseudoviruses	–	35 to 88.7 nM	–
O=C(O)c1cc(-c2ccc(/C=C3\SC(=S)N(CCc4ccccc4)C3=O)o2)ccc1F [Compound 3]	slightly less efficient against all the pseudoviruses tested	232 ± 17 nM	–	–
Cc1ccc(-c2ccc(/C=C3\SC(=S)N(CCc4ccccc4)C3=O)o2)cc1C(=O)O [Compound 4]	–	–	–	148 to 239 nM
